The values below come from patent US9982005B2, “Macrolides and methods of their preparation and use” (President and Fellows of Harvard College, priority 2013, dated 2018).

Each structure is given as a SMILES string. Converted amounts (≈) assume the structure as drawn. Where two headings read alike, the source gives them in different places. Where only a bound is given, the exact number is not on record here.

What all share (type): cell-based
One test concerns HI281 H. influenzae. Kind of test: broth dilution MIC, H. influenzae HI281. The settings on record: Haemophilus influenzae. The essentials: (§1)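 Antibacterial activity is reported as MIC by CLSI broth dilution. Panel strains were chosen with a focus on macrolide-resistance mechanisms. Azithromycin control included.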
In test [1] the test system is HI175 H. influenzae ATCC49247. In words: broth dilution MIC, H. influenzae HI175. The settings on record: Haemophilus influenzae. The essentials:
as §1
In general terms: In broth dilution the organism is exposed to a series of concentrations in liquid medium.

Test [2] concerns Spn1533 S. pneumoniae ermB positive mefA positive. In words: broth dilution MIC, S. pneumoniae Spn1533. The conditions noted are these: Streptococcus pneumoniae. A digest of the protocol: as §1
For test [3], the system named is Spn1537 S. pneumoniae ermB positive mefA positive. Kind of test: broth dilution MIC, S. pneumoniae Spn1537. The settings on record: Streptococcus pneumoniae. The essentials:
as §1

Test [4] concerns BS1723 B. subtilis BS168 WT wild type. Kind of test: broth dilution MIC, B. subtilis BS1723. The settings on record: Bacillus subtilis, BS1723 B. subtilis BS168 WT wild type; read-out: MIC. A digest of the protocol: as §1
In a further test the test system is BS1725 B. subtilis ermC. In words: broth dilution MIC, B. subtilis BS1725. The settings on record: Bacillus subtilis. A digest of the protocol:
as §1

Test [5] concerns SA418 S. aureus ermA negative msrA positive. Kind of test: broth dilution MIC, S. aureus SA418. The conditions noted are these: Staphylococcus aureus. The essentials:
as §1

For test [6], the system named is SA1707 S. aureus ermA negative msrA positive. Kind of test: broth dilution MIC, S. aureus SA1707. The settings on record: Staphylococcus aureus. A digest of the protocol:
as §1

The test system of test [7] is SA183 S. aureus ermA positive msrA unknown. In words: broth dilution MIC, S. aureus SA183. The conditions noted are these: Staphylococcus aureus. A digest of the protocol:
as §1

The test system of test [8] is Spn160 S. pneumoniae ermB unknown mefA positive. Kind of test: broth dilution MIC, S. pneumoniae Spn160. The settings on record: Streptococcus pneumoniae; Spn160 S. pneumoniae ermB unknown mefA positive; read-out: MIC. The essentials:
as §1

Test [9] concerns Spn1509 S. pneumoniae ermB positive mefA negative. Kind of test: broth dilution MIC, S. pneumoniae Spn1509. The conditions noted are these: Streptococcus pneumoniae; Spn1509 S. pneumoniae ermB positive mefA negative; read-out: MIC. The essentials:
as §1

For a further test, the system named is EC882 E. coli imp. In words: broth dilution MIC, E. coli EC882. The conditions noted are these: Escherichia coli. The essentials: as §1
Test [10] concerns SA506 S. aureus ermA positive msrA unknown. In words: broth dilution MIC, S. aureus SA506. The conditions noted are these: Staphylococcus aureus. The essentials: as §1
Test [11] relates to SA557 S. aureus ermA unknown msrA positive. Kind of test: broth dilution MIC, S. aureus SA557. The conditions noted are these: Staphylococcus aureus; SA557 S. aureus ermA unknown msrA positive; read-out: MIC. The essentials: as §1
In test [12] the test system is Spn 106 S. pneumonia ATCC49619. In words: broth dilution MIC, S. pneumoniae Spn 106. The settings on record: Streptococcus pneumoniae. The essentials: as §1
Test [13] has as its system SA101 S. aureus ATCC29213. In words: broth dilution MIC, S. aureus SA101. The conditions noted are these: Staphylococcus aureus, ATCC29213, SA101 S. aureus ATCC29213; read-out: MIC. A digest of the protocol:
as §1

The subject of the next test is EC878 E. coli tolC. In words: broth dilution MIC, E. coli EC878. The conditions noted are these: Escherichia coli. A digest of the protocol: as §1
In test [14] the test system is SA1708 S. aureus ermA positive msrA negative. In words: broth dilution MIC, S. aureus SA1708. The conditions noted are these: Staphylococcus aureus. The essentials: as §1
In test [15] the test system is Spn1427 S. pneumoniae ermB positive mefA negative. Kind of test: broth dilution MIC, S. pneumoniae Spn1427. The conditions noted are these: Streptococcus pneumoniae. The essentials:
as §1

The test system of the next test is EC107 E. coli ATCC25922. In words: broth dilution MIC, E. coli EC107. The settings on record: Escherichia coli, read-out: MIC. The essentials:
as §1

Regarding `CC[C@H]1OC(=O)C(C)(F)C(=O)[C@@H](C)[C@@H](O[C@@H]2OC(C)CC(N(C)C)C2O)[C@](C)(OC)C[C@@H](C)CN[C@H](C)[C@H]2N(CCCCn3cc(-c4ccccn4)nn3)C(=O)O[C@]12C` (some centres unmarked) [FSM-20716], the MIC against HI281 H. influenzae is over 32 µg/mL; in test [1], 8 µg/mL (≈ 9.62 µM); in test [2], over 32 µg/mL; in [3] it was over 32 µg/mL; in [4] it was 8 µg/mL (≈ 9.62 µM); in the test with BS1725 B. subtilis ermC (BS1725 B. subtilis ermC (+ery)), over 32 µg/mL. For the same compound, the MIC was 4 µg/mL (≈ 4.81 µM) with BS1725 B. subtilis ermC (BS1725 B. subtilis ermC (−ery)); 16 µg/mL (≈ 19.2 µM) in test [5]; 16 µg/mL (≈ 19.2 µM) in test [6]; over 32 µg/mL in test [7]; 0.5 µg/mL (≈ 0.601 µM) in [8]; 8 µg/mL (≈ 9.62 µM) in test [9]. For the same compound, the MIC against EC882 E. coli imp is 0.25 µg/mL (≈ 0.3 µM); in test [10], over 32 µg/mL; in [11], 16 µg/mL (≈ 19.2 µM); in test [12] (Spn 106 S. pneumonia ATCC49619, read-out: MIC) it was 0.25 µg/mL (≈ 0.3 µM); in test [13] it was 8 µg/mL (≈ 9.62 µM); in the test on EC878 E. coli tolC, 1 µg/mL (≈ 1.2 µM). The figures for the MIC (in test [14]; in [15]; in the test on EC107 E. coli ATCC25922) were 32 µg/mL (≈ 38.5 µM), over 32 µg/mL and over 32 µg/mL, respectively.

For `CC[C@H]1OC(=O)C(C)C(=O)[C@@H](C)[C@@H](O[C@@H]2OC(C)CC(N(C)C)C2O)[C@](C)(OC)C[C@@H](C)CN[C@H](C)[C@H]2N(CCCCn3cc(-c4ccccn4)nn3)C(=O)O[C@]12C` (some centres unmarked) [FSM-20754], the MIC was 8 µg/mL (≈ 9.83 µM) with HI281 H. influenzae; 2 µg/mL (≈ 2.46 µM) in [1]; over 32 µg/mL in test [2]; over 32 µg/mL in test [3]; 2 µg/mL (≈ 2.46 µM) in test [4]; 32 µg/mL (≈ 39.3 µM) against BS1725 B. subtilis ermC (BS1725 B. subtilis ermC (+ery)). Further, the MIC in [5] is 4 µg/mL (≈ 4.91 µM); in test [6], 4 µg/mL (≈ 4.91 µM); in test [7] it was over 32 µg/mL; in test [8], 0.25 µg/mL (≈ 0.307 µM); in test [9] it was 4 µg/mL (≈ 4.91 µM); against EC882 E. coli imp, 0.125 µg/mL (≈ 0.154 µM). Also, the MIC was over 32 µg/mL in [10]; 4 µg/mL (≈ 4.91 µM) in test [11]; 0.0625 µg/mL (≈ 0.0768 µM) in test [12] (ATCC49619); 2 µg/mL (≈ 2.46 µM) in test [13]; 0.5 µg/mL (≈ 0.614 µM) against EC878 E. coli tolC; 4 µg/mL (≈ 4.91 µM) in test [14]. For the same compound, the MIC is over 32 µg/mL in test [15] and 16 µg/mL (≈ 19.7 µM) in the test on EC107 E. coli ATCC25922.
